For eleven compounds, inhibition in vivo results are on record in patent US6552069B1, “3-methyl-chroman and -thiochroman derivatives” (Chugai Seiyaku Kabushiki Kaisha, priority 1999, dated 2003).

The test system of the assay is estradiol-induced increase in uterine weight. In words: Anti-estrogenic activity (oral administration) in ovariectomized mice administered with 17β-estradiol. In kind it is in vivo. The settings on record: 10 mg/kg p.o. once a day for 3 days, suspended in 5% arabic gum, ovariectomized ICR mice given 17β-estradiol-benzoate 0.1 μg/mouse s.c. for 3 days, uteri weighed 24 hours after last administration. How it is done:
Test compounds were assayed for their oral anti-estrogenic activity in the following manner. In this experiment, the compounds prepared in Examples mentioned above were used as test compounds. As control compounds, the following three were used: a compound described in Example 7 of WO98/25916; ZM; and a compound corresponding to general formula (1) of the present invention, provided that R2 was a C2 perfluoroalkyl group (perfluoroethyl), i.e., 10-[(3RS,4RS)-7-hydroxy-3-(4-hydroxyphenyl)-3-methylthiochroman-4-yl]-2-(4,4,5,5,5-pentafluoropentyl)decanoic acid, which had been synthesized according to Reaction Schemes 1 to 7 mentioned above.
In this experiment, each of the test and control compounds was suspended in 5% arabic gum solution and orally administered for 3 days on a once-a-day basis. After 24 hours from the last administration, the test animals were sacrificed and the uteri were removed and weighed.
What is called inhibition in vivo is how much of the control response was suppressed. Higher therefore signals a strong effect. In the case of `C[C@@]1(c2ccc(O)cc2)CSc2cc(O)ccc2[C@@H]1CCCCCCCCC(CCCC(F)(F)C(F)(F)F)C(=O)O` (mixture of isomers) [10-[(3RS,4RS)-7-hydroxy-3-(4-hydroxyphenyl)-3-methylthiochroman-4-yl]-2-(4,4,5,5,5-pentafluoropentyl)decanoic acid, reference compound], 10 mg/kg produced 75% inhibition in vivo. The figure for `C[C@@]1(c2ccc(O)cc2)CSc2cc(O)ccc2[C@@H]1CCCCCCCCC(CCC(F)(F)C(F)(F)C(F)(F)C(F)(F)F)C(=O)O` (mixture of isomers) [Example 8, 10-[(3RS,4RS)-7-hydroxy-3-(4-hydroxyphenyl)-3-methylthiochroman-4-yl]-2-(3,3,4,4,5,5,6,6,6-nonafluorohexyl)decanoic acid] is 93%; for `C[C@@]1(c2ccc(O)cc2)CSc2cc(O)ccc2[C@@H]1CCCCCCCCC(CCCC(F)(F)C(F)(F)C(F)(F)C(F)(F)F)C(=O)O` (mixture of isomers) [Example 9, 10-[(3RS,4RS)-7-hydroxy-3-(4-hydroxyphenyl)-3-methylthiochroman-4-yl]-2-(4,4,5,5,6,6,7,7,7-nonafluoroheptyl)decanoic acid] it is 93%.

`C[C@@]1(c2ccc(O)cc2)CSc2cc(O)ccc2[C@@H]1CCCCCCCCCC(CCC(F)(F)C(F)(F)C(F)(F)C(F)(F)F)C(=O)O` (mixture of isomers) [Example 11, 11-[(3RS,4RS)-7-hydroxy-3-(4-hydroxyphenyl)-3-methylthiochroman-4-yl]-2-(3,3,4,4,5,5,6,6,6-nonafluorohexyl)undecanoic acid] yielded an inhibition in vivo at 10 mg/kg of 85%.

`C[C@@]1(c2ccc(O)cc2)CSc2cc(O)ccc2[C@@H]1CCCCCCCCCC(CCCC(F)(F)C(F)(F)C(F)(F)C(F)(F)F)C(=O)O` (mixture of isomers) [Example 12, 11-[(3RS,4RS)-7-hydroxy-3-(4-hydroxyphenyl)-3-methylthiochroman-4-yl]-2-(4,4,5,5,6,6,7,7,7-nonafluoroheptyl)undecanoic acid]: the inhibition in vivo at 10 mg/kg stood at 86%. The figure for `C[C@@]1(c2ccc(O)cc2)COc2cc(O)ccc2[C@@H]1CCCCCCCCC(CCC(F)(F)C(F)(F)C(F)(F)C(F)(F)F)C(=O)O` (mixture of isomers) [Example 13, 10-[(3RS,4RS)-7-hydroxy-3-(4-hydroxyphenyl)-3-methylchroman-4-yl]-2-(3,3,4,4,5,5,6,6,6-nonafluorohexyl)decanoic acid] is 84%; for `C[C@@]1(c2ccc(O)cc2)COc2cc(O)ccc2[C@@H]1CCCCCCCCCC(CCC(F)(F)C(F)(F)C(F)(F)C(F)(F)F)C(=O)O` (mixture of isomers) [Example 14, 11-[(3RS,4RS)-7-hydroxy-3-(4-hydroxyphenyl)-3-methylchroman-4-yl]-2-(3,3,4,4,5,5,6,6,6-nonafluorohexyl)undecanoic acid] it is 88%; for `C[C@@]1(c2ccc(O)cc2)COc2cc(O)ccc2[C@@H]1CCCCCCCCC(CCCC(F)(F)C(F)(F)C(F)(F)C(F)(F)F)C(=O)O` (mixture of isomers) [Example 15, 10-[(3RS,4RS)-7-hydroxy-3-(4-hydroxyphenyl)-3-methylchroman-4-yl]-2-(4,4,5,5,6,6,7,7,7-nonafluoroheptyl)decanoic acid] it is 92%. The figure for `C[C@@]1(c2ccc(O)cc2)COc2cc(O)ccc2[C@@H]1CCCCCCCCCC(CCCC(F)(F)C(F)(F)C(F)(F)C(F)(F)F)C(=O)O` (mixture of isomers) [Example 16, 11-[(3RS,4RS)-7-hydroxy-3-(4-hydroxyphenyl)-3-methylchroman-4-yl]-2-(4,4,5,5,6,6,7,7,7-nonafluoroheptyl)undecanoic acid] is 91%; for `C[C@@]1(c2ccc(O)cc2)CSc2cc(O)ccc2[C@@H]1CCCCCCCCC(CCC(F)(F)C(F)(F)C(F)(F)C(F)(F)F)C(=O)O` (single isomer, unassigned) [Example 21, Peak 1] it is 89%; for `CC1(c2ccc(O)cc2)COc2cc(O)ccc2C1CCCCCCCCCC(CCC(F)(F)C(F)(F)C(F)(F)C(F)(F)F)C(=O)O` (single isomer, unassigned) [Example 24, Peak 1, 11-[7-hydroxy-3-(4-hydroxyphenyl)-3-methylchroman-4-yl]-2-(3,3,4,4,5,5,6,6,6-nonafluorohexyl)undecanoic acid] it is 85%.
